# Assay results: patent publication US4666907A, “Phenothiazine and derivatives and analogs and use as leukotriene biosynthesis inhibitors” (Merck Frosst Canada, Inc., priority 1986, dated 1987)
# Where two headings read alike, the source gives them in different places.
# Assays:
# asthmatic rats = assay: Asthmatic rat assay (duration of dyspnoea after egg albumin aerosol); type: in vivo; conditions: po; for inhibition in vivo at 3 mg/kg: 3 mg/kg p.o.; for inhibition in vivo at 1.5 mg/kg: 1.5 mg/kg p.o.
# Excerpt: Rats were obtained from an inbred line of asthmatic rats. Both female and male rats from 200 to 300 g were used.
# Egg albumin (EA), grade V, crystallized and lyophilized, was obtained from Sigma Chemical Co., St. Louis. Bordetella pertussis vaccine, containing 30×10^9 killed bacteria per ml was obtained from the Institut Armand-Frappier, Laval des Rapides, Quebec. Aluminum hydroxide was obtained from the Regeis Chemical Company, Chicago.
# The challenge and subsequent respiratory recordings were carried out in a clear plastic box with internal dimensions 10×6×4 inches. The top of the box was removable; in use, it was held firmly in place by four clamps and an airtight seal was maintained by a soft rubber gasket. […] A Fleisch No. 0000 pneumotachograph was inserted into one end of the box and coupled to a Grass volumetric pressure transducer (PT5-A) which was then connected to a Beckman Type R Dynograph through appropriate couplers. While aerosilizing the antigen, the outlets were open and the pneumotachograph was isolated from the chamber. The outlets were closed and the pneumotachograph and the chamber were connected during the recording or the respiratory patterns. For challenge, 2 ml of a 3% solution of antigen in saline was placed into each nebulizer and the aerosol was generated with air from a small Potter diaphragm pump operating at 10 psi and a flow of 8 liters/minutes.
# Rats were sensitized by injection (s.c.) 1 ml of a suspension containing 1 mg EA and 200 mg aluminum hydroxide in saline. Simultaneously, they received an injection (i.p.) of 0.5 ml of B. pertussis vaccine. They were used between days 14 and 18 postsensitization. In order to eliminate the serotonin component of the response, rats were pretreated intravenously 5 minutes prior to aerosol challenge with […] methylserzide. Rats were then exposed to an aerosol of 3% EA in saline for exactly 1 minute, then their respiratory profiles were recorded for a further 25-30 minutes. The duration of continuous dyspnoea was measured from the respiratory recordings.
# Compounds were generally administered either intraperitoneally 1 hour prior to challenge or orally 11/2 hours prior to challenge. They were either dissolved in dimethylsulfoxide or suspended in 0.1% methocel and 0.5% Tween 80. The volume injected has 2 ml kg^-1 (intraperitoneally) or 10 ml kg^-1 (orally). Prior to oral treatment rats were starved overnight. Their activity was determined in terms of their ability to decrease the duration of symptoms of dyspnoea in comparison with a group of vehicle-treated controls. Usually, a compound was evaluated at a series of doses and an ED50 was determined. This was defined as the dose (mg/kg) which would inhibit the duration of symptoms by 50%.
# [1] = tested on: PAF-induced hyperalgesia in Sprague-Dawley rats; assay: PAF-induced hyperalgesia assay (vocalization threshold, rat paw); type: in vivo; conditions: po, read-out: PAF Induced Hyperalgesia Assay % inhibition
# Description: Female Sprague-Dawley rats, 35-40 g were fasted overnight. Platelet activating factor, PAF, (L-lecithin B-acetyl O-alkyl) 1 μg/0.1 ml was given by subplantar injection in the rat paw. The compounds to be evaluated were homogenized in aqueous Vehicle (0.9% benzyl alcohol, 0.5% Tween 80 and 0.4% methylcellulose) and administered orally in a volume of 0.1 ml, 30 minutes prior to PAF.
# Animals were tested 1, 2, 3 and 4 hours after PAF administration. The vocalization threshold, defined as the pressure (mm Hg) needed to evoke a squeak response, was recorded for both the injected and contralateral paw. No animal was subjected to pressure greater than 60 mm Hg. Hyperalgesia is defined as a decrease in vocalization threshold as compared to a normal paw. Percent inhibition of hyperalgesia was calculated as the proportion of animals with vocalization thresholds greater than 200% of controls.
# [2] = tested on: Mouse peritoneal macrophages; assay: Mouse macrophage assay (zymosan-stimulated arachidonic acid metabolites, Leukotriene C4); type: cell-based; conditions: read-out: Macrophage IC50
# Description: Mouse peritoneal macrophages were treated sequentially with arachidonic acid (labelled with tritium); the compound being evaluated as an inhibitor, and a stimulator (zymosan). Metabolites derived from arachidonic acid (PGE2, 6-Keto PG-F1@ and Leukotriene C4) were separated from the incubation medium by extraction and chromatography, and then quantitated by determining the amount of radioactivity (cpm) associated with each of them. […] (This protocol is identical to that described in the reference except that the radioactivity herein associated with the LTC4 was determined by counting an aliquot of the final aqueous solution directly rather than chromatographing it first).
# Reference: Humes, J. L. et al., J. Biol. Chem. 257, 1591-4 (1982).
# [3] = tested on: sensitized guinea pig trachea; assay: Antigen challenge 'in vitro' assay (egg albumin-induced contraction of sensitized tracheal chains); type: cell-based; conditions: Cavia porcellus; for inhibition at 10 µg/mL / inhibition at 1 µg/mL: read-out: In Vitro Antigen Challenge % Inhibition; for inhibition at 3 µg/mL: at 3 μg/ml
# Description: Male guinea pigs weighing 300-350 g were sensitized by injecting (i.p.) 0.5 ml of a suspension containing 0.4 mg of egg albumin (Ovalbumin, Grade V, Sigma Chemical Co.) and 4.0 g aluminum hydroxide in 19.6 ml of saline. Two weeks were permitted for sensitization to occur.
# Three sensitized guinea pigs were stunned and exsanguinated. The tracheas were removed, freed of adhering tissue and divided longitudinally by cutting through the cartilaginous tissue directly opposite the muscle insertion. Each opened trachea was then transected between every second cartilage. Four of the cut sections were tied together, end to end in a series with No. 0.7 silk thread ensuring that the tracheal muscles were all in the same vertical plane. Thus, each chain consisted of tissue from three different animals.
# The chain so formed was then suspended under 1 g of tension (by silk ties at each end) in a 20 ml organ bath containing 10 ml of modified^1 Krebs-Henseleit buffer solution gassed with 95% O2 and 5% CO2 at 37° C. Mepyramine (0.55 μg/ml) and indomethacin (2.67 μg/ml were added to the buffer to avoid the contribution of histamine receptors and cyclooxygenase products to the contraction. To record responses one end of the tracheal chain was attached to a Gould Statham UC-2 force displacement transducer which was connected to a Beckman Type R-dynograph.The preparations were allowed to equilibrate for one hour during which time the tissues were automatically washed (10 ml volume displacement) ever 6 minutes.
# After the equilibration period the tissues were primed with methacholine (3 μg/lml; 1.5×10^-5 M), washed and allowed to recover to baseline. The tissues were treated again with a second dose of methacholine, washed, allowed to return to baseline and washed for an additional hour.
# Two chains were used as a control. These were incubated in a concentration of egg albumin sufficient to induce an average contraction of 50-80% of the methacholine response.
# Each compound to be tested was added to two other baths (at a final concentration in each bath of 10 μg/ml or lower) 15 minutes prior to challenging the fresh chains with egg albumin.
# The response of the challenged tissue was expressed as a percentage of the methacholine maximum. The % inhibition for each compound was then calculated. Compounds which at 10 μg/ml (final concentration) inhibited the egg albumin response by 50% or more were retested at a lower concentration.
# [4] = tested on: LTB4 formation in rat PMN; assay: Rat polymorphonuclear leukocyte (P.M.N.) assay, LTB4 formation; type: cell-based; conditions: A-23187, LTB4
# Description: Rats under ether anesthesia are injected (i.p.) with 8 ml of a suspension of sodium caseinate (6 grams in ca. 50 ml water). After 15-24 hours the rats are sacrificed (CO2) and the cells from the peritoneal cavity are recovered by lavage with 20 ml of buffer (Eages MEM containing 30 mM HEPES adjusted to pH 7.4 with NaOH). The cells are pelleted (350×g, 5 min.), resuspended in buffer with vigorous shaking, filtered through lens paper, recentrifuged and finally suspended in buffer at a concentration of […]. A 500 μl aliquot of PMN suspension and test compound are preincubated for 2 minutes at 37° C., followed by the addition of 10 μM A-23187. The suspension is stirred for an additional 4 minutes then bioassayed for LTB4 content by adding an aliquot to a second 500 μl portion of the PMN at 37° C. The LTB4 produced in the first incubation causes aggregation of the second PMN, which is measured as a change in light transmission. The size of the assay aliquot is chosen to give a submaximal transmission change (usually […]) for the untreated control. The percentage inhibition of LTB4 formation is calculated from the ratio of transmission change in the sample to the transmission change in the compound-free control.
# [5] = mouse peritoneal macrophages, zymosan
Structure (SMILES),"IC50 [2, 5] [µg/mL]",inhibition at 10 µg/mL ([3]; at 10 μg/ml) [%],IC50 [4] [µg/mL],further results
O=S1(=O)c2ccccc2Nc2ccc(O)cc21,–,–,–,inhibition in vivo at 3 mg/kg (asthmatic rats): 70%; responders at 3 mg/kg ([1]; 3 mg/kg p.o.): 60%
O=S1(=O)c2ccccc2Nc2ccc(O)c(Cl)c21,–,–,–,inhibition in vivo at 1.5 mg/kg (asthmatic rats): 59%; responders at 1.2 mg/kg ([1]; 1.2 mg/kg p.o.): 50%
COc1ccc2c(c1Cl)Sc1cc(F)ccc1N2C,–,–,–,inhibition in vivo at 3 mg/kg (asthmatic rats): 42%
COc1ccc2c(c1Cl)[S+]([O-])c1ccccc1N2 (stereo not shown),–,–,–,inhibition in vivo at 3 mg/kg (asthmatic rats): 56%
O=S1(=O)c2ccccc2Nc2ccc(O)c(O)c21,–,–,–,inhibition in vivo at 1.5 mg/kg (asthmatic rats): 65%
CC(=O)N1c2ccccc2Sc2c1ccc(O)c2Cl,–,–,–,inhibition in vivo at 3 mg/kg (asthmatic rats): 61%
CC(=O)Oc1ccc2c(c1Cl)Sc1ccccc1N2C(C)=O,–,–,–,inhibition in vivo at 3 mg/kg (asthmatic rats): 58%
COc1ccc2c(c1Cl)Sc1cc(F)ccc1N2C(C)=O,–,–,–,inhibition in vivo at 3 mg/kg (asthmatic rats): 36%
COc1ccc2c(c1Cl)[S+]([O-])c1cc(F)ccc1N2C (stereo not shown),–,–,–,inhibition in vivo at 3 mg/kg (asthmatic rats): 52%
COc1ccc2c(c1Cl)Oc1ccccc1N2C,–,–,–,inhibition in vivo at 0.3 mg/kg (asthmatic rats; 0.3 mg/kg p.o.): 49%
COc1ccc2c(c1)Sc1c(cc(OC)c(OC(C)=O)c1Br)N2C(C)=O,–,–,–,inhibition in vivo at 0.5 mg/kg (asthmatic rats; 0.5 mg/kg p.o.): 58%; responders at 0.03 mg/kg ([1]; 0.03 mg/kg p.o.): 60%
COc1ccc2c(c1)Sc1c(cc(OC)c(O)c1Br)N2C(C)=O,–,–,–,inhibition in vivo at 1.5 mg/kg (asthmatic rats): 78%; responders at 0.1 mg/kg ([1]; 0.1 mg/kg p.o.): 60%
Clc1cccc2c1Sc1ccccc1N2 [Compound 3],0.01 to 0.1,37,0.05 to 0.5,–
Cc1cccc2c1Nc1ccccc1S2 [Compound 4],5,76,–,–
FC(F)(F)c1ccc2c(c1)Nc1ccccc1S2 [Compound 5],0.1,7,–,–
Oc1ccc2c(c1)Sc1ccccc1N2 [Compound 6],0.1 to 1,100,0.016,–
CC(=O)Oc1ccc2c(c1)Sc1ccccc1N2 [Compound 7],0.01 to 0.1,60,0.005,–
CC(=O)c1ccc2c(c1)Nc1ccccc1S2 [Compound 8],0.2,60,–,–
Oc1ccc2c(c1Cl)Sc1ccccc1N2 [Compound 9],–,–,0.005,inhibition at 3 µg/mL [3]: 97%
Cc1ccc(S(=O)(=O)Oc2ccc3c(c2Cl)Sc2ccccc2N3)cc1 [Compound 10],–,–,0.1 to 1,inhibition at 3 µg/mL [3]: 14%

Structure (SMILES),"IC50 [2, 5] [µg/mL]",inhibition at 10 µg/mL ([3]; at 10 μg/ml) [%],IC50 [4] [µg/mL],further results
CC(=O)Oc1ccc2c(c1Cl)Sc1ccccc1N2 [Compound 11],0.1,100,–,–
COc1ccc2c(c1Cl)Sc1ccccc1N2 [Compound 12],–,–,0.01 to 0.1,inhibition at 1 µg/mL ([3]; at 1 μg/ml): 60%
COc1ccc2c(c1)Sc1cc(Cl)ccc1N2 [Compound 13],0.12,22,–,–
Clc1ccc2c(c1)Sc1cc(Cl)ccc1N2 [Compound 14],0.01 to 0.1,1,0.005 to 0.05,–
O=[N+]([O-])c1ccc2c(c1)Sc1cc([N+](=O)[O-])ccc1N2 [Compound 15],0.0016 to 0.008,21,–,–
COc1ccc2c(c1)Sc1c(cc(OC)c(O)c1Br)N2 [Compound 16],–,–,0.01,–
CN(C)c1ccc2c(c1)Sc1cc(N(C)C)ccc1N2 [Compound 17],5,–,–,–
Oc1cccc2c1Nc1ccccc1S2 [Compound 18],–,3,0.05 to 0.5,–
CC(=O)Oc1ccc2c(c1)Sc1cc(F)ccc1N2 [Compound 19],–,–,0.005,–
CC(C)C(=O)Oc1ccc2c(c1Cl)Sc1ccccc1N2 [Compound 20],–,65,0.005 to 0.05,–
CC(=O)N1c2ccccc2Sc2ccccc21 [Compound 21],5,–,–,–
COc1ccc2c(c1Cl)Sc1ccccc1N2C(C)=O [Compound 22],1,91,1,–
FC(F)(F)c1ccc2c(c1)Nc1ccccc1O2 [Compound 23],–,–,0.05 to 0.5,inhibition at 3 µg/mL [3]: 40%
c1ccc2c(c1)Nc1ccccc1O2 [Compound 24],–,–,5,IC50 ([2]; Mus musculus): 0.1 µg/mL; inhibition at 1 µg/mL [3]: 88%
CC(=O)Oc1ccc2c(c1)Sc1cccc(Cl)c1N2C [Compound 25],–,–,0.5,inhibition at 3 µg/mL [3]: 1 to 9%
COc1ccc2c(c1Cl)Sc1ccccc1N2C [Compound 26],1,3,5,–
CC(C)C(=O)Oc1ccc2c(c1Cl)Sc1ccccc1N2C [Compound 27],–,–,0.005 to 0.05,inhibition at 3 µg/mL [3]: 6%
c1ccc2c(c1)Nc1ccccc1S2 [drawing 34],–,–,0.4,IC50 ([2]; Mus musculus): 0.06 µg/mL; inhibition at 10 µg/mL [3]: 100%
c1ccc2c(c1)Nc1ccccc1O2 [drawing 75],–,–,–,inhibition in vivo at 1.5 mg/kg (asthmatic rats): 51%
